≈ marks a conversion by molar mass, not a printed value.
Tests used:
[1] = tested on: Staphylococcus aureus OC4172; test: MIC, microdilution broth method (NCCLS), strain C; assay type: cell-based; settings: cation adjusted Mueller-Hinton broth, 35° C., 16-20 hours
[2] = tested on: Enterococcus faecium OC 3312 vancomycin resistant; test: MIC, microdilution broth method (NCCLS), strain A; settings: read-out: MIC A Strain
Description: (§1) The in vitro antimicrobial activity of representative compounds of the present invention was determined by the microdilution broth method following the test method from the National Committee for Clinical Laboratory Standards (NCCLS).
(§2) In this method two-fold serial dilutions of drug in cation adjusted Mueller-Hinton broth were added to wells in microdilution trays. The test organisms were prepared by adjusting the turbidity of actively growing broth cultures so that the final concentration of test organism after it is added to the wells was approximately 5×10^4 CFU/well. Following inoculation of the microdilution trays, the trays were incubated at 35° C. for 16-20 hours and then read. The amount of growth in the wells containing the test compound was compared with the amount of growth in the growth-control wells (no test compound) used in each tray.

[3] = tested on: Methicillin-resistant Staphylococcus aureus OC 3726 COL; test: MIC, microdilution broth method (NCCLS), strain B; settings: read-out: MIC B Strain
Description: as §1, §2

[4] = tested on: Methicillin-resistant Staphylococcus aureus OC 2878; test: MIC, microdilution broth method (NCCLS), strain D; settings: read-out: MIC D Strain
Description: as §1, §2

| Structure (SMILES) | MIC [1] | MIC [2] | MIC [3] | MIC [4] |
| --- | --- | --- | --- | --- |
| CO[C@H]1/C=C/O[C@@]2(C)Oc3c(C)c(O)c4c(O)c(c([C@H](O)C[N+](=O)[O-])c(O)c4c3C2=O)NC(=O)/C(C)=C\C=C\[C@H](C)[C@H](O)[C@@H](C)[C@@H](O)[C@@H](C)[C@H](OC(C)=O)[C@@H]1C (single isomer, unassigned) [Compound 5] | 8 µg/mL (≈ 10.2 µM) | 8 µg/mL (≈ 10.2 µM) | 8 µg/mL (≈ 10.2 µM) | 8 µg/mL (≈ 10.2 µM) |
| CO[C@H]1/C=C/O[C@@]2(C)Oc3c(C)c(O)c4c(c3C2=O)C(=O)C(CC[N+](=O)[O-])=C(NC(=O)/C(C)=C\C=C\[C@H](C)[C@H](O)[C@@H](C)[C@@H](O)[C@@H](C)[C@H](OC(C)=O)[C@@H]1C)C4=O [Compound 1] | ≤ 0.03 µg/mL | 0.12 µg/mL (≈ 0.156 µM) | ≤ 0.03 µg/mL | ≤ 0.03 µg/mL |
| CO[C@H]1/C=C/O[C@@]2(C)Oc3c(C)c(O)c4c(O)c(c(CC[N+](=O)[O-])c(O)c4c3C2=O)NC(=O)/C(C)=C\C=C\[C@H](C)[C@H](O)[C@@H](C)[C@@H](O)[C@@H](C)[C@H](OC(C)=O)[C@@H]1C [Compound 2] | ≤ 0.03 µg/mL | 1 µg/mL (≈ 1.3 µM) | ≤ 0.03 µg/mL | ≤ 0.03 µg/mL |
| CO[C@H]1/C=C/O[C@@]2(C)Oc3c(C)c(O)c4c(O)c(c(C(C[N+](=O)[O-])C[N+](=O)[O-])c(O)c4c3C2=O)NC(=O)/C(C)=C\C=C\[C@H](C)[C@H](O)[C@@H](C)[C@@H](O)[C@@H](C)[C@H](OC(C)=O)[C@@H]1C [Compound 3] | 0.25 µg/mL (≈ 0.301 µM) | 4 µg/mL (≈ 4.82 µM) | 0.5 µg/mL (≈ 0.603 µM) | 0.25 µg/mL (≈ 0.301 µM) |
| CO[C@H]1/C=C/O[C@@]2(C)Oc3c(C)c(O)c4c(c3C2=O)C(=O)C(C(C[N+](=O)[O-])C[N+](=O)[O-])=C(NC(=O)/C(C)=C\C=C\[C@H](C)[C@H](O)[C@@H](C)[C@@H](O)[C@@H](C)[C@H](OC(C)=O)[C@@H]1C)C4=O [Compound 4] | 0.5 µg/mL (≈ 0.604 µM) | 2 µg/mL (≈ 2.42 µM) | 1 µg/mL (≈ 1.21 µM) | 0.5 µg/mL (≈ 0.604 µM) |
| CO[C@H]1/C=C/O[C@@]2(C)Oc3c(C)c(O)c4c(O)c(c(C(CN)CN)c(O)c4c3C2=O)NC(=O)/C(C)=C\C=C\[C@H](C)[C@H](O)[C@@H](C)[C@@H](O)[C@@H](C)[C@H](OC(C)=O)[C@@H]1C [Compound 8] | 0.25 µg/mL (≈ 0.325 µM) | 1 µg/mL (≈ 1.3 µM) | 0.5 µg/mL (≈ 0.649 µM) | 1 µg/mL (≈ 1.3 µM) |
| CO[C@H]1/C=C/O[C@@]2(C)Oc3c(C)c(O)c4c(O)c(c(CCNCc5ccccc5)c(O)c4c3C2=O)NC(=O)/C(C)=C\C=C\[C@H](C)[C@H](O)[C@@H](C)[C@@H](O)[C@@H](C)[C@H](OC(C)=O)[C@@H]1C [Compound 9] | ≤ 0.03 µg/mL | 0.12 µg/mL (≈ 0.144 µM) | ≤ 0.03 µg/mL | ≤ 0.03 µg/mL |
| CO[C@H]1/C=C/O[C@@]2(C)Oc3c(C)c(O)c4c(O)c(c(CCN(C)C)c(O)c4c3C2=O)NC(=O)/C(C)=C\C=C\[C@H](C)[C@H](O)[C@@H](C)[C@@H](O)[C@@H](C)[C@H](OC(C)=O)[C@@H]1C [Compound 10] | ≤ 0.03 µg/mL | 0.25 µg/mL (≈ 0.325 µM) | ≤ 0.03 µg/mL | 0.06 µg/mL (≈ 0.078 µM) |
| CO[C@H]1/C=C/O[C@@]2(C)Oc3c(C)c(O)c4c(O)c(c(CCN5CCCCC5)c(O)c4c3C2=O)NC(=O)/C(C)=C\C=C\[C@H](C)[C@H](O)[C@@H](C)[C@@H](O)[C@@H](C)[C@H](OC(C)=O)[C@@H]1C [Compound 11] | ≤ 0.03 µg/mL | 0.25 µg/mL (≈ 0.309 µM) | 0.06 µg/mL (≈ 0.0742 µM) | 0.06 µg/mL (≈ 0.0742 µM) |
| CO[C@H]1/C=C/O[C@@]2(C)Oc3c(C)c(O)c4c(O)c(c(CCNCc5ccc(N6CCN(C)CC6)cc5)c(O)c4c3C2=O)NC(=O)/C(C)=C\C=C\[C@H](C)[C@H](O)[C@@H](C)[C@@H](O)[C@@H](C)[C@H](OC(C)=O)[C@@H]1C [Compound 12] | ≤ 0.03 µg/mL | 0.5 µg/mL (≈ 0.538 µM) | ≤ 0.03 µg/mL | ≤ 0.03 µg/mL |
| CO[C@H]1/C=C/O[C@@]2(C)Oc3c(C)c(O)c4c(O)c(c(CCNCc5ccc(-n6cccn6)cc5)c(O)c4c3C2=O)NC(=O)/C(C)=C\C=C\[C@H](C)[C@H](O)[C@@H](C)[C@@H](O)[C@@H](C)[C@H](OC(C)=O)[C@@H]1C [Compound 13] | 0.12 µg/mL (≈ 0.134 µM) | 0.5 µg/mL (≈ 0.557 µM) | 0.12 µg/mL (≈ 0.134 µM) | 0.12 µg/mL (≈ 0.134 µM) |
| CO[C@H]1/C=C/O[C@@]2(C)Oc3c(C)c(O)c4c(O)c(c(CCNCc5ccc(-c6ncccn6)cc5)c(O)c4c3C2=O)NC(=O)/C(C)=C\C=C\[C@H](C)[C@H](O)[C@@H](C)[C@@H](O)[C@@H](C)[C@H](OC(C)=O)[C@@H]1C [Compound 14] | 0.5 µg/mL (≈ 0.55 µM) | 1 µg/mL (≈ 1.1 µM) | 1 µg/mL (≈ 1.1 µM) | 0.5 µg/mL (≈ 0.55 µM) |
| CO[C@H]1/C=C/O[C@@]2(C)Oc3c(C)c(O)c4c(O)c(c(CCNCc5ccc(-c6cccnn6)cc5)c(O)c4c3C2=O)NC(=O)/C(C)=C\C=C\[C@H](C)[C@H](O)[C@@H](C)[C@@H](O)[C@@H](C)[C@H](OC(C)=O)[C@@H]1C [Compound 15] | 0.25 µg/mL (≈ 0.275 µM) | 1 µg/mL (≈ 1.1 µM) | 0.5 µg/mL (≈ 0.55 µM) | 0.25 µg/mL (≈ 0.275 µM) |

From US20100029669A1, “3-(SUBSTITUTED ETHYL)-RIFAMYCIN DERIVATIVES USEFUL AS ANTIMICROBIAL AGENTS” (priority 2008, published 2010)
